Measured values taken from US20090238808A1, “Process for the identification of novel enzyme interacting compounds” (priority 2005, published 2009).

How the values were obtained:
KHS1 = KHS1 (Homo sapiens, UniProt Q9Y4K4); test: Biochemical kinase activity assay (Invitrogen SelectScreen); conditions: read-out: % inhibition, KHS1
EphB4 = EphB4 (Homo sapiens, UniProt P54760); test: as above; conditions: read-out: % inhibition, EphB4
[1] = system: phosphorylation sites on kinobeads-captured proteins, K562 cells; test: Phosphorylation analysis of kinobeads-captured proteins from drug-treated K562 cells; type: cell-based, human; conditions: of 379 sites on 136 proteins identified
Source text: To explore not only the direct targets of the drugs but also their downstream effects on signaling pathways, aliquots of the iTRAQ-labeled peptide mixtures from kinobeads precipitates were subjected to phosphopeptide enrichment and subsequent identification and quantification by mass spectrometry. […] Indeed, most of these proteins have been implicated in signaling events downstream of ABL (FIG. 10b)^16, 18. For all three drugs together, we found down-regulation of 20 sites on 13 proteins (FIGS. 22 and 23).
Mass Spectrometry and Data analysis.
LC-MS/MS for IMAC samples were performed twice.

GCK = GCK (Homo sapiens, UniProt Q12851); test: Biochemical kinase activity assay (Invitrogen SelectScreen); conditions: read-out: % inhibition, GCK
Sequence of GCK (Q12851 whole entry): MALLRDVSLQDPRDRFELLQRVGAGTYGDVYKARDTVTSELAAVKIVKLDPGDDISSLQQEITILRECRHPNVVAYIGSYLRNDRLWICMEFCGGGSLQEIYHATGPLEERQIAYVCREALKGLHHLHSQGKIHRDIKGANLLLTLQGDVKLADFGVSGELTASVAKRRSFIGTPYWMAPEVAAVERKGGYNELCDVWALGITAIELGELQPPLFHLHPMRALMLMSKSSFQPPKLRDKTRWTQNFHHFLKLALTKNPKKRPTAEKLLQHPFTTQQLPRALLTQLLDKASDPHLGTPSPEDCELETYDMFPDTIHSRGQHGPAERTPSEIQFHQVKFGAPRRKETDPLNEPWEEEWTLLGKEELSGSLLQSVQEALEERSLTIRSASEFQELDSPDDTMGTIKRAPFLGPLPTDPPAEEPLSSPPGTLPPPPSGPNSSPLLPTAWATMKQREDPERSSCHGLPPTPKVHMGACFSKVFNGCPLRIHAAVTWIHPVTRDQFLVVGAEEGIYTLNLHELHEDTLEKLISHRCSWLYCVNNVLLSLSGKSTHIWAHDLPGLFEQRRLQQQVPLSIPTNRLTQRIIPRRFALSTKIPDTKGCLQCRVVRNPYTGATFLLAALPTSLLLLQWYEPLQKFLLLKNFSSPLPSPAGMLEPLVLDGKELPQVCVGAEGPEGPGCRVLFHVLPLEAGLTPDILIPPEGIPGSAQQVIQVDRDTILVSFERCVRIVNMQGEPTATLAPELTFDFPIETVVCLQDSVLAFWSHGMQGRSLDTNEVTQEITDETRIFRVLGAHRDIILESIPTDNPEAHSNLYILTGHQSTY

BTK = BTK (Homo sapiens, UniProt Q06187); test: as above; conditions: read-out: % inhibition, BTK
Sequence of BTK (Q06187 whole entry): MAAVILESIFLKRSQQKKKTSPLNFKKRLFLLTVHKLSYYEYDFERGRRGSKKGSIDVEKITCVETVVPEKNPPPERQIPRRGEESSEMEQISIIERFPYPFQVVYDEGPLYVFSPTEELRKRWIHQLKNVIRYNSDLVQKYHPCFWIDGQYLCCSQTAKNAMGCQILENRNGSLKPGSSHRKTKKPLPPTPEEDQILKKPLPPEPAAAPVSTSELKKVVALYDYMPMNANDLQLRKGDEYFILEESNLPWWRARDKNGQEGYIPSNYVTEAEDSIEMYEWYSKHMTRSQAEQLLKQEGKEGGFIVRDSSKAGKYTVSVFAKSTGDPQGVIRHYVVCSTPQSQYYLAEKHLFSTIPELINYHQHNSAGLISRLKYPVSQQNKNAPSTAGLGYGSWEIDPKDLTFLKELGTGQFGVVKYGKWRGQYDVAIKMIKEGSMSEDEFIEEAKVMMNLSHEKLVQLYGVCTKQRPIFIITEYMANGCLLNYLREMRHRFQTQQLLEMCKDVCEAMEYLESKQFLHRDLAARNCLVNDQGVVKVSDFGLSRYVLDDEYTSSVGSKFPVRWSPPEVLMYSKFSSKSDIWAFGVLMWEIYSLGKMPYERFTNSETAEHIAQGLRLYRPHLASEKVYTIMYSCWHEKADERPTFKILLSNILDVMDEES

FER = FER (Homo sapiens, UniProt P16591); test: as above; conditions: read-out: % inhibition, FER
Sequence of FER (P16591 whole entry): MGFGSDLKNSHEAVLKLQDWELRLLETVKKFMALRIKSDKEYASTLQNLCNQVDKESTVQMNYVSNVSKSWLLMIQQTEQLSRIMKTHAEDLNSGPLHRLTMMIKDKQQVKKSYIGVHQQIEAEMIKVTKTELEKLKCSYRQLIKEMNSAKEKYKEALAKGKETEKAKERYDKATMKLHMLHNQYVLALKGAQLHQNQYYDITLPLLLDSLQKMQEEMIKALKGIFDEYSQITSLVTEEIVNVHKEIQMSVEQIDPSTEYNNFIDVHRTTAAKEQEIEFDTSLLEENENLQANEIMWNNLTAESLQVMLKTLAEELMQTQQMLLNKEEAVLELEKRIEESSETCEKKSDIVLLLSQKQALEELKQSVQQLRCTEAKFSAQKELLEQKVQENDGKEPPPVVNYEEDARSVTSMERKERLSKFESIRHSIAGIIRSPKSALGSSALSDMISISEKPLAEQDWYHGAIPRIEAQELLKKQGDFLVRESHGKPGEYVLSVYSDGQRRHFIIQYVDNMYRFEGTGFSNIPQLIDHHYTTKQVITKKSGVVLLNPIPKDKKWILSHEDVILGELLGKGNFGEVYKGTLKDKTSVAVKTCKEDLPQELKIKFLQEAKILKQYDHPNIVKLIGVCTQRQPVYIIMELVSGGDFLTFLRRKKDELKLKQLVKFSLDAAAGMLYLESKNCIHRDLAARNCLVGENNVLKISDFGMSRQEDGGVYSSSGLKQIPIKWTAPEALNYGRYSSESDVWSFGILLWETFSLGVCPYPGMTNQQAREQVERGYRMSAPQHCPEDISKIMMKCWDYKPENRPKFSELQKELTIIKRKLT

MER = target: T1, MER (Homo sapiens, UniProt Q12866); test: as above; conditions: read-out: % inhibition, MER
T1 sequence (Q12866 21-999): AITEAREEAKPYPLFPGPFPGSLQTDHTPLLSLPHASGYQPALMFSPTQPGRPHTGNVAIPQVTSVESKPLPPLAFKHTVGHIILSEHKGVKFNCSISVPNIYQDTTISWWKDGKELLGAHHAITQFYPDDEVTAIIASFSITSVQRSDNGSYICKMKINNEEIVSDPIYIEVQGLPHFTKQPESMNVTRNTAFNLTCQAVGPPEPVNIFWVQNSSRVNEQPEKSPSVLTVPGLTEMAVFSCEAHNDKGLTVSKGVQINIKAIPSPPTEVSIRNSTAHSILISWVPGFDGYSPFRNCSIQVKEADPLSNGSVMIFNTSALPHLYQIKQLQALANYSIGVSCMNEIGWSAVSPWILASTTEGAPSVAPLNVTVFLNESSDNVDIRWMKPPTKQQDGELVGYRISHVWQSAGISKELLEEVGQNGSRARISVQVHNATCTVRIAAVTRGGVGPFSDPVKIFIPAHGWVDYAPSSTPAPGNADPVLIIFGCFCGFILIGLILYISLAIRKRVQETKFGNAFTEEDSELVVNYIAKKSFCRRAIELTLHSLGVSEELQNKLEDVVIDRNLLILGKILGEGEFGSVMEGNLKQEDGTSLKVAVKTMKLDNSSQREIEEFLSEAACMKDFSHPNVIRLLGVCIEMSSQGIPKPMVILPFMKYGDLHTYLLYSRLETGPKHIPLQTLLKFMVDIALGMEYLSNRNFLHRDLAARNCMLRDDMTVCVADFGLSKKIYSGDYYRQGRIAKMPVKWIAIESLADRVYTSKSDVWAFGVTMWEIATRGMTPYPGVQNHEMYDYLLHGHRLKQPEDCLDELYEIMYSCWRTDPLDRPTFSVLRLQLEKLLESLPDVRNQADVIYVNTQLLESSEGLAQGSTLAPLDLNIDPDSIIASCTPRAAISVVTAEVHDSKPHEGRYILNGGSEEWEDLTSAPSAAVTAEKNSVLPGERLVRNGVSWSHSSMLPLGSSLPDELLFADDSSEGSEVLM

FAK/PTK2 = FAK/PTK2 (Homo sapiens, UniProt Q05397); test: as above; conditions: read-out: % inhibition, FAK

Sequence of EphB4 (P54760 16-987): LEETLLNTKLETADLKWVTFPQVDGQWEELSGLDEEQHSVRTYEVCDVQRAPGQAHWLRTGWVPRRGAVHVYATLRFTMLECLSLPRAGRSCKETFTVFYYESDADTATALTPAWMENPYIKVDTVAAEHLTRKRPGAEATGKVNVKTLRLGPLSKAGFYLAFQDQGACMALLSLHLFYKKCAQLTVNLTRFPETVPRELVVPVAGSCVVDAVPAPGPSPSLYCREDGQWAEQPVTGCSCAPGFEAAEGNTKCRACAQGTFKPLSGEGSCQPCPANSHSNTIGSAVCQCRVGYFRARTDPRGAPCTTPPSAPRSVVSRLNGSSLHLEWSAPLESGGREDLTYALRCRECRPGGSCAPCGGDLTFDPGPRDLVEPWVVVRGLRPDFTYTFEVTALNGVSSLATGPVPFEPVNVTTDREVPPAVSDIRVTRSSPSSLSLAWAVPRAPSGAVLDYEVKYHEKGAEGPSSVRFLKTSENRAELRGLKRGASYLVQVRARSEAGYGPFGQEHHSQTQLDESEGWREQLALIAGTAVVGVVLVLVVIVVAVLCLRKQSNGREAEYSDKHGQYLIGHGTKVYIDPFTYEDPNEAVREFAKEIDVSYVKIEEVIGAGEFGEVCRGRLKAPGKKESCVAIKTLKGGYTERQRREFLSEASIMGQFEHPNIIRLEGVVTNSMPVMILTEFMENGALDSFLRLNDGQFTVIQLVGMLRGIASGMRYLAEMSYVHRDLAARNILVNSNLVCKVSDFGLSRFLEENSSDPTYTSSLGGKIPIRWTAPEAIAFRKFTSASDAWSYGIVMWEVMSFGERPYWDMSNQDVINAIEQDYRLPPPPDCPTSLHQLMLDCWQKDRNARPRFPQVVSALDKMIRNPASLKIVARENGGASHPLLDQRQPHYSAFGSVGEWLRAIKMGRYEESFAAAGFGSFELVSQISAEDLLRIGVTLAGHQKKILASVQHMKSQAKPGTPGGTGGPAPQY
Sequence of KHS1 (Q9Y4K4 whole entry): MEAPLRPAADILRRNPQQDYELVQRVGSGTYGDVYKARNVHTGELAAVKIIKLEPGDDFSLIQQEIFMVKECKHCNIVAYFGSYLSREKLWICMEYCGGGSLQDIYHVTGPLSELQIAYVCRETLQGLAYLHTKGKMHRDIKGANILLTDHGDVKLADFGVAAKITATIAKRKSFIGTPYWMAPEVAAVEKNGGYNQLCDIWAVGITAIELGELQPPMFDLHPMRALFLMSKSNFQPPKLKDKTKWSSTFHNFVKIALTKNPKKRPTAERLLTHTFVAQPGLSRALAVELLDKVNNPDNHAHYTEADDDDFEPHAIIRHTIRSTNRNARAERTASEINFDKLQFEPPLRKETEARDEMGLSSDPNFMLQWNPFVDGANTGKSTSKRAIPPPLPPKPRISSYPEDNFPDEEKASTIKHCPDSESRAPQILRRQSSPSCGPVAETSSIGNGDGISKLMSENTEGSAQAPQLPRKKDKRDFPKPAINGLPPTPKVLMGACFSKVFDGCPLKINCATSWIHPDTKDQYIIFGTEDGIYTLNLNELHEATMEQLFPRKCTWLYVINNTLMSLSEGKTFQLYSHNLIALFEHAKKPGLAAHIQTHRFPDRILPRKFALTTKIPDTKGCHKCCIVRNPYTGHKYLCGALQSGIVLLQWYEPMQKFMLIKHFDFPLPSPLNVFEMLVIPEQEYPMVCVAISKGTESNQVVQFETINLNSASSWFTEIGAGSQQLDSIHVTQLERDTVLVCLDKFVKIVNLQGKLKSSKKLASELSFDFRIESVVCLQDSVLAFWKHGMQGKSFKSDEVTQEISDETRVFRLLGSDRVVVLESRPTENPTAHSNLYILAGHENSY

inhibition at 5 µM (KHS1): 14% | inhibition at 5 µM (EphB4): 5% | inhibition at 5 µM (GCK): 10% | inhibition at 5 µM (BTK): 4% | inhibition at 5 µM (FER): 14% | inhibition at 5 µM (MER): 11% | inhibition at 5 µM (FAK/PTK2): 2%
SMILES: Cc1ccc(NC(=O)c2ccc(CN3CCN(C)CC3)cc2)cc1Nc1nccc(-c2cccnc2)n1 [imatinib]
number of phosphorylation sites with substantial down-regulation [1]: Eight
